Measured values published in article PMC6407913, “DREADD Agonist 21 Is an Effective Agonist for Muscarinic-Based DREADDs in Vitro and in Vivo” (ACS Pharmacology & Translational Science, 2018).
Where “and” joins values, the source holds several entries; their conditions need not be identical. Equal entries are not always repeated. Where two headings read alike, the source gives them in different places.

Experiments:
Experiment in all cases: NIMH PDSP radioligand binding, membranes
[1] = target: T1, 5-HT5A (Homo sapiens, UniProt P47898)
T1 construct: NIMH PDSP
Protocol: (§1) Radioligand binding assays with membrane preparations to determine binding affinity were carried out as outlined before[540] and by the National Institute of Mental Health’s Psychoactive Drug Screening Program (NIMH PDSP) (https://pdsp.unc.edu/), Contract # HHSN-271–2013–00017-C. The NIMH PDSP is Directed by B.L.R. at the University of North Carolina at Chapel Hill, Chapel Hill, NC, and Project Officer Jamie Driscoll at NIMH, Bethesda, MD.

[2] = target: 5-HT2B (Homo sapiens, UniProt P41595)
Protocol: as §1

[3] = target: H2 (Homo sapiens, UniProt P25021)
Protocol: as §1

[4] = target: M3 (Homo sapiens, UniProt P20309)
Protocol: as §1

[5] = target: BZP
Protocol: as §1

[6] = target: M2 (Homo sapiens, UniProt P08172)
Protocol: as §1

[7] = target: T2, CB2 (Homo sapiens, UniProt P34972)
T2 construct: NIMH PDSP
Protocol: as §1

[8] = target: T3, 5-HT6 (Homo sapiens, UniProt P50406)
T3 construct: NIMH PDSP
Protocol: as §1

[9] = target: H1 (Homo sapiens, UniProt P35367)
Protocol: as §1

[10] = target: T4, Alpha 1B (Homo sapiens, UniProt P35368)
T4 construct: NIMH PDSP
T4 sequence (P35368 1-520): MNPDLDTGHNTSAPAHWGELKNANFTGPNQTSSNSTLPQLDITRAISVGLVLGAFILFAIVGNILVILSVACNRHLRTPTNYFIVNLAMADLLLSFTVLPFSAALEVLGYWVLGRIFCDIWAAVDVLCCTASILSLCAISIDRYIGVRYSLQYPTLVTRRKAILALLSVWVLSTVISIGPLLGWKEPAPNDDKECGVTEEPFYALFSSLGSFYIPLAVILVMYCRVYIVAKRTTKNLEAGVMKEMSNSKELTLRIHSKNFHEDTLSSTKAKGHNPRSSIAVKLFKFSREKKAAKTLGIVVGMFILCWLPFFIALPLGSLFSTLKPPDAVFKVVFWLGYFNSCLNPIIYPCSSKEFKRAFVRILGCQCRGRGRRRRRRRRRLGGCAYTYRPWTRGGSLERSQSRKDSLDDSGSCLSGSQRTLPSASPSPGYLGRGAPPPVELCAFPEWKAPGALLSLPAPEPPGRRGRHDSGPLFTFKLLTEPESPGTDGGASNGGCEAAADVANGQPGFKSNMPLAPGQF
Protocol: as §1

[11] = target: Beta2 (Homo sapiens, UniProt P07550)
Protocol: as §1

[12] = target: T5, Beta3 (Homo sapiens, UniProt P13945)
T5 construct: NIMH PDSP
Protocol: as §1

[13] = target: CB1 (Homo sapiens, UniProt P21554)
Protocol: as §1

[14] = target: T6, Alpha1D (Homo sapiens, UniProt P25100)
T6 construct: NIMH PDSP
T6 sequence (P25100 1-572): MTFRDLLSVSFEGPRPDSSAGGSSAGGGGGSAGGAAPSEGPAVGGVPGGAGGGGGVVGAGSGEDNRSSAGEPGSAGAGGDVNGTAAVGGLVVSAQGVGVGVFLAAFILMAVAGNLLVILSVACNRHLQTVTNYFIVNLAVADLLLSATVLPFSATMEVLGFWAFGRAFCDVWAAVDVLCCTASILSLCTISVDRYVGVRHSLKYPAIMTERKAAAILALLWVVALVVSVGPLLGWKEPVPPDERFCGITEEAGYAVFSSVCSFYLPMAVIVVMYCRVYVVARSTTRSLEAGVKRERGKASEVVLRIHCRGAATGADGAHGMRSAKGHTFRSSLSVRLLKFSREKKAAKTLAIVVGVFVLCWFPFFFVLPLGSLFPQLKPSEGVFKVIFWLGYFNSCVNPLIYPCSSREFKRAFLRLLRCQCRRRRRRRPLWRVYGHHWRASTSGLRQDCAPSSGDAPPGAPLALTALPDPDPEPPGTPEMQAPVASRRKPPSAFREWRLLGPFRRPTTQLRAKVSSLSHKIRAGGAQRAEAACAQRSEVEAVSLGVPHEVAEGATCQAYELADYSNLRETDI
Protocol: as §1

[15] = target: D3 (Homo sapiens, UniProt P35462)
Protocol: as §1

[16] = target: M1 (Homo sapiens, UniProt P11229)
Protocol: as §1

[17] = target: MOR (Homo sapiens, UniProt P35372)
Protocol: as §1

[18] = target: D5 (Homo sapiens, UniProt P21918)
Protocol: as §1

[19] = target: T7, 5-HT7 (Homo sapiens, UniProt P34969)
T7 construct: NIMH PDSP
Protocol: as §1

[20] = target: 5-HT2A (Homo sapiens, UniProt P28223)
Protocol: as §1

[21] = target: 5-HT1D (Homo sapiens, UniProt P28221)
Protocol: as §1

[22] = read-out: Ki #1-#5 (individual assays)
[23] = read-out: log Ki (individual assays) (converted)
[24] = read-out: pKi (mean) (converted)

T3 sequence (P50406 whole entry, species assumed): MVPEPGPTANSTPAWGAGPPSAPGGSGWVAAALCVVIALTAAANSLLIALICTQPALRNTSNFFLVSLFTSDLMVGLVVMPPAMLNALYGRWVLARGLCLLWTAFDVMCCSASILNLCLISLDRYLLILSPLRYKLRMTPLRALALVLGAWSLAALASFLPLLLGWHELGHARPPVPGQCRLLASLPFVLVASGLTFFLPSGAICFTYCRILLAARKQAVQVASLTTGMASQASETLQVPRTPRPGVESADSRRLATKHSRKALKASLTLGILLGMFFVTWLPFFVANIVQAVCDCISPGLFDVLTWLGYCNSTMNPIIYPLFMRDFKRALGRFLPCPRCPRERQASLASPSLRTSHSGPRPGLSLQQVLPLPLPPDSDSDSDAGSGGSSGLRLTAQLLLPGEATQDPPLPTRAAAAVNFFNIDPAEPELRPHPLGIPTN
Chain of M2 (P08172 whole entry): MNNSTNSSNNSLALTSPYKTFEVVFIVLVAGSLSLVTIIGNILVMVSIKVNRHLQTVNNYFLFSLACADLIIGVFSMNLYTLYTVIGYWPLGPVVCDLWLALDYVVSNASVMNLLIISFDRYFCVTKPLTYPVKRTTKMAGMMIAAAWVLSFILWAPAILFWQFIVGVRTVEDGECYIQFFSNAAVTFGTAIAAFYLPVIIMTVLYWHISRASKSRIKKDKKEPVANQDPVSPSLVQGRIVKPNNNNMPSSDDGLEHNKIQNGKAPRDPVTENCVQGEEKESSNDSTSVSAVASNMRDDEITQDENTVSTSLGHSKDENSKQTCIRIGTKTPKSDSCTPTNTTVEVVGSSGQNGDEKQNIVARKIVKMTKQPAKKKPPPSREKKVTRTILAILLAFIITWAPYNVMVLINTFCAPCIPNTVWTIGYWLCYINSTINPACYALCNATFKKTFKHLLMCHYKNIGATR
T1 sequence (P47898 whole entry, species assumed): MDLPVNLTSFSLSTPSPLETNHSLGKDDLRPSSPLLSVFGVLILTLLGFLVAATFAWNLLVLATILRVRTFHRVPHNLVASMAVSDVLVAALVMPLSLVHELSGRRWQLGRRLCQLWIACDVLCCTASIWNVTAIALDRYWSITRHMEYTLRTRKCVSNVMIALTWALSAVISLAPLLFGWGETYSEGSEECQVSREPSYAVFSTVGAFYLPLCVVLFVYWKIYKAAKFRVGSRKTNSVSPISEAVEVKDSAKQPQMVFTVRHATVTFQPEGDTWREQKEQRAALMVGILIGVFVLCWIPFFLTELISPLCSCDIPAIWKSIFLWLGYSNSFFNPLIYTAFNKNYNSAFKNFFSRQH
Chain of H1 (P35367 whole entry): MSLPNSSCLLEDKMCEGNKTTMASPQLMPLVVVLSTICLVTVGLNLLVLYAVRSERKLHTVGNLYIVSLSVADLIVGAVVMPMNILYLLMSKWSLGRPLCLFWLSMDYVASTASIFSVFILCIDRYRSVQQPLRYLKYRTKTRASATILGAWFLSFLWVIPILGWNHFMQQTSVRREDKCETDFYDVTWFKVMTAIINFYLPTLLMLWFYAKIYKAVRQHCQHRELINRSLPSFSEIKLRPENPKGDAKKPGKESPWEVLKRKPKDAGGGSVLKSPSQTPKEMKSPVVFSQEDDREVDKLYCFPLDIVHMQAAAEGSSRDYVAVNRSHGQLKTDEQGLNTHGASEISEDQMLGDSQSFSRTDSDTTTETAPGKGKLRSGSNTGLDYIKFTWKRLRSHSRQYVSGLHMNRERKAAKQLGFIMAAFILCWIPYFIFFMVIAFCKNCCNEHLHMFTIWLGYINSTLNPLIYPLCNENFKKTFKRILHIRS
T7 sequence (P34969 whole entry, species assumed): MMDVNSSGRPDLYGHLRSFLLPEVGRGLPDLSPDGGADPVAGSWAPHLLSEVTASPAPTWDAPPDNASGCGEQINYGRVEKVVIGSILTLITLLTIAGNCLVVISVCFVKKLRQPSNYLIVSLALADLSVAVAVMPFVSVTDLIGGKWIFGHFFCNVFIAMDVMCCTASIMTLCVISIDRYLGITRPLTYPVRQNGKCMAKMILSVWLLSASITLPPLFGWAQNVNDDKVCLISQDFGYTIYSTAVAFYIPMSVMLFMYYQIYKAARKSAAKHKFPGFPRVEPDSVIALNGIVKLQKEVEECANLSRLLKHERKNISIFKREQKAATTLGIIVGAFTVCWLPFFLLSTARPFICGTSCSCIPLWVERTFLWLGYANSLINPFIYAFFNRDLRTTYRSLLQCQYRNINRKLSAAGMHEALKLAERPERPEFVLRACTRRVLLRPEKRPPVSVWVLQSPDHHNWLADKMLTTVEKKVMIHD
Chain of M1 (P11229 whole entry): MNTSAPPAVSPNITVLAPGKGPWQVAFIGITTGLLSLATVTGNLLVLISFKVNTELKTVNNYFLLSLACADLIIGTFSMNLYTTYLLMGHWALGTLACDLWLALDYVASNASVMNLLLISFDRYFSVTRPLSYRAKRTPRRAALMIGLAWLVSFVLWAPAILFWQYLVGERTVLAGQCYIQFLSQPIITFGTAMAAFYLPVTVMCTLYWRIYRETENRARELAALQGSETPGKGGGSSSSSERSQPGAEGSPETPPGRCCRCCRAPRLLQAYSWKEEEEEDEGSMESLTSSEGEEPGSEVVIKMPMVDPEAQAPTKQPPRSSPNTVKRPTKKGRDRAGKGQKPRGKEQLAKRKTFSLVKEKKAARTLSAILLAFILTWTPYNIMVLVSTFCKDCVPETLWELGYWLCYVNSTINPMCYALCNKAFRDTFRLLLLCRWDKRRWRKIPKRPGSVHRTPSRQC
Chain of 5-HT1D (P28221 whole entry, species assumed): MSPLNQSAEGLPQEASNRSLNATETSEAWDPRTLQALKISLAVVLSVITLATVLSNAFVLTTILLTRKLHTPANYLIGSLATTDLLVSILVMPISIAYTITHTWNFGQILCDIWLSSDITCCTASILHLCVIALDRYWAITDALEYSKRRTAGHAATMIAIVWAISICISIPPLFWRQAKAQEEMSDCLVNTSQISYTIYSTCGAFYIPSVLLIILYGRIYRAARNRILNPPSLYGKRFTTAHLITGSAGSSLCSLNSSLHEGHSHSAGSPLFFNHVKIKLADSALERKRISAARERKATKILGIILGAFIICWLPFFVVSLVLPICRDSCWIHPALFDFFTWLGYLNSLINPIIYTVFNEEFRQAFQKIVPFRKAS
Chain of D5 (P21918 whole entry): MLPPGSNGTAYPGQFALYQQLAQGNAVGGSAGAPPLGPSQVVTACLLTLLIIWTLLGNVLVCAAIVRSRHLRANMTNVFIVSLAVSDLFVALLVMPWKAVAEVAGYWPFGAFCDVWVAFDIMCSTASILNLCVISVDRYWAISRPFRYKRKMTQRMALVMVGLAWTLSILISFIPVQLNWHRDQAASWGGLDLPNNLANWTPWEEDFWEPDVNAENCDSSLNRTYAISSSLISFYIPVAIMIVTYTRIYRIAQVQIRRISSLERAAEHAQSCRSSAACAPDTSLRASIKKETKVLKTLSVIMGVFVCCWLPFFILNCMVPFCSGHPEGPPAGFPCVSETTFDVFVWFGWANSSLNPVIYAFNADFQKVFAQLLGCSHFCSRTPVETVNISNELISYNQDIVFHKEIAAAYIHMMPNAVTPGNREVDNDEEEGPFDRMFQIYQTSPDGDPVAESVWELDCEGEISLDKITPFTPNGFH
Chain of H2 (P25021 whole entry): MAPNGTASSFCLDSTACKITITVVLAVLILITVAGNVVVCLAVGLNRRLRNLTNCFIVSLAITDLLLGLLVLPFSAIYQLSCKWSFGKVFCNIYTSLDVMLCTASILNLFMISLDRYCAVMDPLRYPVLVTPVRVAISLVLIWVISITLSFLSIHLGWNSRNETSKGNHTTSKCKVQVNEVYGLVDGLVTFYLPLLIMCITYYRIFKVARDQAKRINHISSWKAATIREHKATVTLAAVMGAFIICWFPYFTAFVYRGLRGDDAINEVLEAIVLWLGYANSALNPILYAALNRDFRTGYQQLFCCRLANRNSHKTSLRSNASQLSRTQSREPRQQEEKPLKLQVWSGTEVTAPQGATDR
Chain of 5-HT2A (P28223 whole entry, species assumed): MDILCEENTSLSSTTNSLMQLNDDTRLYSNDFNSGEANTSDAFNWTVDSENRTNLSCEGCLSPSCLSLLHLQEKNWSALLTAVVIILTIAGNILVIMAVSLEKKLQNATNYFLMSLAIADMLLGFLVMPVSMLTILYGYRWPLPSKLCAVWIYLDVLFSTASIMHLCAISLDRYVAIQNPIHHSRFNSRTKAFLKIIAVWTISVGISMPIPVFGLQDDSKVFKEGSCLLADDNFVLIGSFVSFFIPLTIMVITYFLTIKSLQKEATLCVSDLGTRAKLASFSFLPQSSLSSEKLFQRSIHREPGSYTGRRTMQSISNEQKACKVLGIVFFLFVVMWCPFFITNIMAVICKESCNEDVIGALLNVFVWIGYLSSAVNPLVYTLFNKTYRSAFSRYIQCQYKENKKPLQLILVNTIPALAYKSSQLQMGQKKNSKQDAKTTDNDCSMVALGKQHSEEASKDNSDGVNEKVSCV
Chain of 5-HT2B (P41595 whole entry, species assumed): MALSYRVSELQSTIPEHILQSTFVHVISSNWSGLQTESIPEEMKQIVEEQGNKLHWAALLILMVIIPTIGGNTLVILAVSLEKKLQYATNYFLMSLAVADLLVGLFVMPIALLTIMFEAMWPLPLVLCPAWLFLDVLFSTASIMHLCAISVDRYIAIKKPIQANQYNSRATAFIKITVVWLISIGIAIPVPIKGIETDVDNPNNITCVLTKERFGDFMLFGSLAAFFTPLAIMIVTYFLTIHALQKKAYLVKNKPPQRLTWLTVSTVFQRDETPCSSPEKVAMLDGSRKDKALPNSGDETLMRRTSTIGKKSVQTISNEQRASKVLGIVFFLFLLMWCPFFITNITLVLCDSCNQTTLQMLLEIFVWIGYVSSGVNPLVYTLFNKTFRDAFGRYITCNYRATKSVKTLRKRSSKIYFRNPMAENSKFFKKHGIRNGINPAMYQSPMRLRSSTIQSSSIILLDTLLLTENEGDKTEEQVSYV

c1ccc2c(c1)N=C(N1CCNCC1)c1ccccc1N2 [C21, 11-(1-piperazinyl)-5H-dibenzo[b,e][1,4]diazepine] was tested, and the Ki ([1]; read-out: Ki) was 1910 nM, the Ki [1, 22] was 3300 nM and 1400 nM and 2020 nM and 1430 nM and the Ki ([2]; read-out: Ki) was 32.7 nM. The Ki [2, 23] was 26.9 nM and 38 nM and 28.2 nM and 39.8 nM, the Ki [2, 24] was 33.1 nM and the Ki ([3]; read-out: Ki) was 289 nM. The Ki [3, 22] was 257 nM and 511 nM and 184 nM, the Ki ([4]; read-out: Ki) was 270 nM and the Ki [4, 22] was 144 nM and 485 nM and 281 nM. The “log Ki (individual assays)” value [5] was 5.27 and 5.61 and 5.12 and 5.10 and 5.33, the “pKi (mean)” value [5] was 5.29 and the Ki ([5]; read-out: Ki) was 5180 nM. For the same molecule, the Ki [5, 22] was 4720 nM and 5310 nM and 2440 nM and 7610 nM and 7980 nM, the Ki ([6]; read-out: Ki) was 146 nM and the Ki [6, 22] was 246 nM and 139 nM and 91 nM. The Ki ([7]; read-out: Ki) was > 10000 nM, the Ki [7, 22] was > 10000 nM and the Ki ([8]; read-out: Ki) was 266 nM. The Ki [8, 22] was 421 nM and 193 nM and 232 nM, the Ki [9, 22] was 4.5 nM and the Ki [9, 23] was 3.47 nM and 2.4 nM. For the same molecule, the Ki [9, 24] was 3.39 nM, the “log Ki (individual assays)” value [10] was <5 and the Ki ([10]; read-out: Ki) was > 10000 nM. The Ki [10, 22] was > 10000 nM, the Ki ([11]; read-out: Ki) was > 10000 nM and the Ki [11, 22] was > 10000 nM. For the same molecule, the Ki ([12]; read-out: Ki) was > 10000 nM, the Ki [12, 22] was > 10000 nM and the Ki ([13]; read-out: Ki) was > 10000 nM. For the same molecule, the Ki [13, 22] was > 10000 nM, the “log Ki (individual assays)” value [14] was <5 and the Ki ([14]; read-out: Ki) was > 10000 nM. The Ki [14, 22] was > 10000 nM, the Ki ([15]; read-out: Ki) was 870 nM and the Ki [15, 22] was 1520 nM and 1160 nM and 372 nM. The Ki ([16]; read-out: Ki) was 548 nM, the Ki [16, 22] was 693 nM and 303 nM and 785 nM and the Ki ([17]; read-out: Ki) was 3880 nM. For the same molecule, the Ki [17, 22] was 2230 nM and 4820 nM and 5430 nM, the Ki ([18]; read-out: Ki) was 2900 nM and the Ki [18, 22] was 4110 nM and 1650 nM and 3620 nM. The Ki ([19]; read-out: Ki) was 107 nM, the Ki [19, 22] was 104 nM and 77 nM and 152 nM and the Ki ([20]; read-out: Ki) was 44.3 nM. For the same molecule, the Ki [20, 22] was 58.9 nM and 51 nM, the Ki [20, 23] was 28.8 nM and the Ki ([21]; read-out: Ki) was 972 nM. For the same molecule, the Ki [21, 22] was 1190 nM and 785 nM and 983 nM.
